pIC50: −log10 of the molar value. Like-named read-outs stand apart in the source and are kept apart here.

A word on the AUC: it is the area under the concentration-time curve, a measure of exposure. Lower therefore signals low exposure.

For series [1] the following is noted: rat, in vivo, po, 100 mg/kg, 4 h.
Method: (§1) Each compound of the present invention was dissolved in distilled water for injection and orally administered to rats (Lewis strain line, male, body weight: about 200 g) at a dose of 100mg/kg. From 30 minutes to 4 hours after the administration, a series of blood chronologically collected from rat fundus oculi were centrifuged (3000rpm for 10 minutes at 4°C) to give plasma samples. Each plasma sample (200 µl) was filtered through an ultrafiltration membrane by centrifugation at 1500 x G for 3 minutes using a micropartition UF unit (Centrifree-MPS-3: 30,000 MW cut-off, Amicon Corp., Beverly, MA). […] The reaction was stopped by adding 900 µl of 3% aqueous acetic acid to the reaction mixture. The fluorescence of the resulting solution was read using an excitation wavelength of 325 nm and an emission wavelength of 393 nm. The concentration of each test compound in rat plasma samples was calculated using a standard curve which was prepared based on a variety of doses.
Series [2] is described as follows: Assay for Oral Absorption in Rat (plasma level by MMP-3 inhibition bioassay). The settings on record: rats (Lewis, male), orally, 100mg/kg, 0.5 to 4 hours after administration.
Method: as §1
Series [3] concerns the target human fibroblast stromelysin (Homo sapiens, UniProt P08254). The series can be described thus: Assay for inhibition of stromelysin (fluorescein-labeled casein substrate). It counts as biochemical. The method, then: Described below are assays for biological activities of the compounds according to the present invention, formulations, dosage forms and dosage levels thereof, and miscellaneous matters. The efficacy of the compounds represented by the formula (I) according to the present invention as inhibitors of human fibroblast collagenase (metalloproteinase involved in the breakdown of tissues) is determined by a procedure based on the method of Y. Murawaki et al., Journal of Hepatology, 18, p328-334 (1993). The efficacy of the compounds (I) of this invention as inhibitors of human fibroblast stromelysin is determined by a procedure based on the method of S. S. Twining, Anal. Biochem., 143, p30 (1984). The assay results obtained are shown hereinbelow, together with biological examples which illustrate embodiments of the assay protocols.
The efficacy of compounds of the present invention to act as inhibitors of human fibroblast stromelysin was determined by the procedure of Twining (Anal. Biochem., 143, p.30, 1984), compared with a reference compound.
Prostromelysin was activated by incubation with 20 µg/ml human plasmin at 37°C for 2 hours, and the reaction was stopped by addition of 2.8 mg/ml aqueous diisopropyl fluorophosphate. The inhibition was assayed using, as a substrate, fluorescein-labeled casein. To a solution of the substrate (1 mg/ml) in a 50 mM Tris-HCl buffer, pH 7.8, containing 10mM aqueous calcium chloride was added the activated stromelysin. The resultant solution was incubated at 37°C for 2 hours. The digestion of the substrate with the enzyme was stopped by addition of 5% trichloroacetic acid. Undigested substrates were precipitated by centrifugation at 3000 x g for 20 minutes. The supernatant was collected, followd by additon of a 0.5M Tris-HCl buffer, pH 8.5. The fluorescence was read using an excitation wavelength of 495 nm and an emission wavelength of 520 nm. The inhibitory potency of the compounds was calculated. […] The resulting assay data for representative examples are shown in Table 2, compared with the reference compound.

Another series deals with TNF-α Convertase (Homo sapiens, UniProt P78536). The series can be described thus: Assay for inhibition of TNF-α production in LPS-stimulated, PMA-differentiated U937 cells.
A further series in a line: in vivo. Particulars: rat, po, 100 mg/kg.

TNF-α Convertase, sequence (P78536 215-824): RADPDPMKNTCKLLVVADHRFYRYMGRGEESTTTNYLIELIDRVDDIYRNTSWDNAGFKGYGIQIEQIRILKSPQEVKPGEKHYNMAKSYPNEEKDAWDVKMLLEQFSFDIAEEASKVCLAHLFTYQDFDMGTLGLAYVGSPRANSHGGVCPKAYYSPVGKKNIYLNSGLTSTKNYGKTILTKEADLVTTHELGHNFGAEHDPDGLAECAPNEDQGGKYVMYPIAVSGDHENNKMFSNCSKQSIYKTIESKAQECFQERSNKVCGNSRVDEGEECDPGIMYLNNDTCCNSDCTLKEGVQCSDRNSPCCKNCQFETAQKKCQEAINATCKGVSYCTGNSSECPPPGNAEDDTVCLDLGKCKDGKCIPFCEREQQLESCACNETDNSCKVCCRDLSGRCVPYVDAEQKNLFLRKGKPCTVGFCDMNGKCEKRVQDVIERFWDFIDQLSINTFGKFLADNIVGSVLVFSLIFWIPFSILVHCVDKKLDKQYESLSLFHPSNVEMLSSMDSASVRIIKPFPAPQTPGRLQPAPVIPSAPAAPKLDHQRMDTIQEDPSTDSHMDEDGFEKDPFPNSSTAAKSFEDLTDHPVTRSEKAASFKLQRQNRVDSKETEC
human fibroblast stromelysin, sequence (P08254 100-477): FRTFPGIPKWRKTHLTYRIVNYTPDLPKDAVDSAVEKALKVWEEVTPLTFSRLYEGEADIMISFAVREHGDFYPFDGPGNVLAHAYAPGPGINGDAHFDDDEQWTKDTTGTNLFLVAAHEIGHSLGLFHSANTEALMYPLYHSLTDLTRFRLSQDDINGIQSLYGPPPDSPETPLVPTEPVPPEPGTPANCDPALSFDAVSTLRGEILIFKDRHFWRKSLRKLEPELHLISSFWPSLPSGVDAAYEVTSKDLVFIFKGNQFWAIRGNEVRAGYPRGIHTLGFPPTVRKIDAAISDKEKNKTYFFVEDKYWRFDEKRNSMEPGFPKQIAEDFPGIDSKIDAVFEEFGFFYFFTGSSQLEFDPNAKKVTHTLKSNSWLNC
Method for in vivo: as §1

For the compound `CC(=N)NCCCC[C@H](NC(=O)[C@H](CC(C)C)C(C)C(=O)NO)C(=O)NC(C)CO.CC(=O)O` (mixture of isomers) [Compound No. 39, N^a-[4-(Hydroxyamino)-2(R)-isobutyl-3(RS)-methylsuccinyl]-N^e-acetimidoyl-L-lysine N-[2-hydroxy-1(RS)-methylethyl]amide · 1 acetate], the AUC0.5-4 in series [1] came to 14996 ng·h/mL.

Compound `CC(=O)O.CCC(=N)NCCCC[C@H](NC(=O)[C@H](CC(C)C)C(C)C(=O)NO)C(=O)NC` (mixture of isomers) [Compound No. 45, N^a-[4-(Hydroxyamino)-2(R)-isobutyl-3(RS)-methylsuccinyl]-N^e-propionimidoyl-L-lysine N-methylamide · 1 acetate] had an AUC0.5-4 in series [2] of 7067 ng·h/mL.

In the case of `CC(=O)O.CC(=O)O.CNC(=O)[C@H](CCCN)NC(=O)[C@H](CC(C)C)C(Cc1ccc(CN)cc1)C(=O)NO` (single isomer, unassigned) [Compound No. 48, N^a-[4-(Hydroxyamino)-2(R)-isobutyl-3(R or S)-(p-aminomethylbentyl)succinyl]-L-ornithine N-methylamide· 2 acetate], in series [1], the AUC0.5-4 was determined as 20203 ng·h/mL.

On to `CC(=O)O.CC(=O)O.CNC(=O)[C@H](Cc1ccc(CN)cc1)NC(=O)[C@H](CC(C)C)C(Cc1ccc(CN)cc1)C(=O)NO` (single isomer, unassigned) [Compound No. 49, N^a-[4-(Hydroxyamino)-2(R)-isobutyl-3(R or S)-(p-aminomethylbenzyl)succinyl]-4'-aminomethyl-L-phenylalanine N-methylamide · 2 acetate], for which the AUC0.5-4 in series [1] was determined as 15292 ng·h/mL.

For `CC(=O)O.CNC(=O)[C@H](C)NC(=O)[C@H](CC(C)C)C(Cc1cccc(CN)c1)C(=O)NO` (single isomer, unassigned) [Compound No. 53, N^a-[4-(Hydroxyamino)-2(R)-isobutyl-3(R or S)-(m-aminomethylbenzyl)succinyl]-L-alanine N-methylamide · 1 acetate], the AUC0.5-4 in series [1] worked out at 4816 ng·h/mL.

As to `CNC(=O)[C@H](CCCCN)NC(=O)[C@H](C(C)C)C(CCCc1ccccc1)C(=O)NO` (single isomer, unassigned) [Compound No. 74, N^a-[4-(Hydroxyamino)-2(R)-isopropyl-3(R or S)-(3-phenylpropyl)succinyl]-L-lysine N-methylamide· 1 acetate], the pIC50 was 7.21 in series [3] (read-out: Inhibition of MMP-3, plasmin-activated human fibroblast prostromelysin, 37°C, 2 hours, pH 7.8) and 6.22 on TNF-α Convertase (read-out: Inhibition of TACE, U937 cells, LPS 0.1 µg/ml, 6 hours, TNF-α in supernatant by assay kit). This compound also came in with an exposure (AUC) at 4 h in the series “in vivo” of 9020 ng·h/mL.

Regarding `CNC(=O)C(Cc1ccc(CN)cc1)NC(=O)C(CC(C)C)C(C)C(=O)NO` [Compound No. 23, N^a-[4-(Hydroxyamino)-2(R)-isobutyl-3(RS)-methylsuccinyl]-4'-aminomethyl-L-phenylalanine N-methylamide · 1 acetate], the pIC50 in series [3] is 7.80; on TNF-α Convertase, 5.92. In “in vivo”, this compound displayed an AUC at 4 h of 4760 ng·h/mL.

For `CC(=O)O.CNC(=O)[C@H](Cc1ccc(CNC(C)=N)cc1)NC(=O)[C@H](CC(C)C)[C@H](O)C(=O)NO` [Compound No. 43, N^a-[4-(Hydroxyamino)-2(R)-isobutyl-3(S)-hydroxysuccinyl]-4'-acetimidoyliminomethyl-L-phenylalanine N-methylamide · 1 acetate], the AUC0.5-4 in series [1] amounted to 3289 ng·h/mL.

`CC(=N)NCCCCC(NC(=O)C(CC(C)C)C(CCCc1ccccc1)C(=O)NO)C(=O)NCCN(C)C` [Compound No. 44, N^a-[4-(Hydroxyamino)-2(R)-isobutyl-3(RS)-(3-phenylpropyl)-succinyl]-N^e-acetimidoyl-L-lysine N-(2-N',N'-dimethylaminoethyl)amide · 2 acetate]: the pIC50 was 7.77 in series [3] and 6.89 against TNF-α Convertase. Further, in “in vivo”, the AUC at 4 h stood at 1930 ng·h/mL.

“N^a-[4-(Hydroxyamino)-2(R)-isobutyl-3(R or S)-[5-(isopropylimino)pentyl]succinyl]-L-alanine N-methylamide [Compound No. 63]” had an AUC0.5-4 in series [1] of 5662 ng·h/mL.
